Assay results as given in patent publication US8916607B2, “Use of piperphentonamine or salts thereof in manufacture of medicaments for treating brain diseases” (Guangzhou Municipal Zhongwei Biotechnology Limited Company, priority 2009, dated 2014).
Marks after values point to notes of the source that are not given here.

What was measured:
[1] = test system: cerebral hemorrhage in rats induced by collagenase; assay: ICH model induced by collagenase: NO in brain tissue by nitrate reductase method; assay type: in vivo, Wistar rats
Excerpt: (§1) Rats in each group were anesthetized by chloral hydrate, decollated rapidly and the brain take were taken out. The brain tissue around the hole was cut and procured, weighed precisely, and made into a 10% tissue homogenate using a glass homogenizer in an ice bath environment with physiological saline as homogenized medium, the supernatant of which was taken to be determined the content of NO by nitrate reductase method.

[2] = test system: cerebral hemorrhage in rats induced by collagenase; assay: ICH model induced by collagenase: brain water content (BWC); assay type: in vivo, Wistar rats
Experimental: (§2) Animals are randomly divided into five groups: sham operation 24 h group; cerebral hemorrhage (Intracerebral Haemorrhage, ICH)+physiological saline group (model); ICH+piperphentonamine hydrochloride (JBTA, 2 mg/kg) group, called as high dose group (h); ICH+piperphentonamine hydrochloride (JBTA, 0.5 mg/kg) group, called as low dose group (1); ICH+nimodipine (Nim, 0.5 mg/kg) group. The last four groups are divided into 4 h, 8 h, 12 h, 24 h as four time subgroups respectively. Physiological saline solution, piperphentonamine hydrochloride and nimodipine are intravenously injected from rat tail before the ICH model is established for 30 minutes, once a day. Injecting slowly, the total amount of drug liquid is controlled in 1 ml/200 g body weight: physiological saline solution also being administered in 1 ml/200 g body weight. Each group has 7 Wistar rats.
Observing the influence of piperphentonamine hydrochloride on the brain water content of intracerebral hemorrhage in rats in 4 h, 8 h, 12 h, 24 h, the animals of the different groups is anesthetized by chloral hydrate at predetermined time point, and decollating and taking the brain rapidly, putting the brain tissue on a filter paper wetted by saline solution to prevent water evaporating. Removing the leptomeninges and blood, cutting and taking the front half portion of brain tissue centered by the hole for the insertion needle, weighing precisely (accurate to 0.1 mg). It is controlled in 5 min to take the brain to finish weigh. Then putting in 95° C. constant temperature oven for 24 h, weighing the dry weight. The brain water content is calculated according to Blliot formula: BWC=(wet weight−dry weight)/wet weight×100%.
(§3) Divide the animals randomly into five groups: sham operation (sham) 24 h group; ICH+normal saline group (model); ICH+piperphentonamine maleate (4 mg/kg) group, namely high dose group (h); ICH+piperphentonamine maleate (2 mg/kg) group, namely low dose group (1); ICH+nimodipine (0.5 mg/kg) group. The last four groups were divided into four time subgroup of 4 h, 8 h, 12 h and 24 h. Physiological solution, piperphentonamine maleate and nimodipine were injected intravenous from rat tail vein 30 minutes before the ICH model made, once a day. Inject slowly, the total amount of drug liquid was controlled in 1 ml/200 g body weight: normal saline was also administered in 1 ml/200 g body weight. Each group has seven Wistar rats.

[3] = test system: infectious cerebral edema of rats (pertussis bacteria liquid); assay: infectious cerebral edema: brain water content and Evans blue content, combination with nimodipine; assay type: in vivo, SD rats; conditions: JBTA pretreatment 0.5 mg/kg iv, 2 times
Experimental: The model of infectious cerebral edema is same with example 4. It is Studied that piperphentonamine hydrochloride and a blocker for specificity L-type calcium ion channel nimodipine influence on the brain water content and Evans blue (EB) content of infectious cerebral edema, of which the purpose is to provide experimental and theoretical basis for clinical treatment.
Each group is further divided into three time group such as 30 min, 4 h and 24 h group.
Injecting intravenously nimodipine after injecting bacteria for 5 min (Nim group, body weight 0.25 mg/kg), 24 h nimodipine treatment group is repeatedly injected the same dose once per 8 h; nimodipine treatment group pretreated by piperphentonamine hydrochloride is intravenously infused piperphentonamine hydrochloride (0.5 mg/kg, 2 times in total) before experimenting for 48 h and 24 h, then treated with nimodipine after the pretreatment. The operation of physiological saline group being same as bacteria liquid group, is injected the same volume of physiological saline at the same time. 2% Evans blue (EB, 0.2 mL/100 g body weight) is injected from the vein of the sublingua after injecting bacteria or saline in 10 min. Each group of animal is executed by decollating after observing to the specified time, rapidly removed the brain, and remove the leptomeninges and coagulation block of the cortical surface, taking full-thickness brain tissue of the back ⅓ of left hemisphere of the brain (about 0.1˜0.2 g, including gray matter and white matter) as specimens, the water content in brain tissue and the Evans blue content are determined by the dry wet method, and brain tissue is examined by electron microscope.

[4] = test system: cerebral hemorrhage in rats induced by collagenase; assay: cerebral hemorrhage (ICH) model induced by collagenase: neurology score; assay type: in vivo, Wistar rats
Experimental: as §2
The specific steps are as following: after the experimental rats are anesthetized by injecting chloral hydrate (350 mg/kg) in intraperitoneal, and being supinely immobilized in a stereotaxic instrument, and make the rat anterior fontanelle and posterior fontanelle in the same plane according to localization method reported by BAO Xinmin, etc. Being locally disinfected by iodine, incising in the midmost of scalp, scissoring the periosteum, exposing the anterior fontanelle, drilling a 1 mm diameter hole with thickness close to duramater in 3 mm left to the midline by number five needle. Inserting needle along the hole by the micro syringe fixed on a stereotaxic, the depth of needle insertion is 5.8 mm (i.e., the caudate nucleus position), slowly injecting collagenase VI 0.5 U. Injection time is 3 min, keeping for 5 min after injection, then pull the needle out, suturing the skin, and putting the rat into cage and feed. Inserting the needle and not injecting drugs in sham operation group, the remaining operations is the same as the above.
After animals wake up, scoring nerve function defect of each group immediately according to the grading classification standards of nerve defect reported by Bedersog (litter improved).
Choosing the animals with the score of 3 and more into the experiment, the animals are bred in different cages, eat and drink normally. Temperature is controlled in 20 to 25° C., score in 4 h, 8 h, 12 h, 24 h after establishment of the model.
as §3

[5] = test system: cerebral hemorrhage in rats induced by collagenase; assay: ICH model induced by collagenase: NE in brain tissue by ELISA; assay type: in vivo, Wistar rats
Excerpt: as §1, with “brains” for “brain take”, “NE activity using ELISA” for “content of NO by nitrate reductase”

[6] = test system: cerebral hemorrhage in rats induced by collagenase; assay: ICH model induced by collagenase: histopathological observation; assay type: in vivo, Wistar rats
Experimental: Influence of piperphentonamine hydrochloride on pathological morphology of cerebral hemorrhage in rats was observed. Each group animals were selected randomly, anesthetized deeply by chloral hydrate at predetermined time point, decollated and the brain were taken out rapidly, then, the brain tissue slices with hematoma (about 5 mm) were cut, and put into 10% formaldehyde solution immediately, fixed for 24 h followed by dehydration by graded ethanol, transparentizing by xylene, immersing in paraffin, embedding, slicing (5 μm), HE staining and sealing. The pathological changes area and the pathological change of the adjacent brain tissue were observed by optical microscope.

[7] = test system: cerebral hemorrhage of rats (autologous blood); assay: cerebral hemorrhage by autologous blood into caudate nucleus: edema (dry-wet weight) and forelimb placement; assay type: in vivo, SD rats; conditions: local administering 3 h after hemorrhage
Experimental: Adult male SD rats were divided randomly into normal saline group, cerebral hemorrhage group and piperphentonamine maleate group. A model of cerebral hemorrhage was established by the methods of injecting 50 μl autologous blood into caudate nucleus of rats, wherein, the position of caudate nucleus was determined according to “the rat cerebral in stereotaxic atlas”: the injection position is at the point of front to anterior fontanelle of 0.2 mm, right to the sagittal suture of 3.0 mm, depth of 6.3 mm. The change of cerebral edema was observed by the dry-wet weight method; the behavior was observed by forelimb placement experiment. The cerebral hemorrhage group was only injected without medicine, with the treatment time of at 3 h after hemorrhage. The edema measurement time was in 1, 2, 3, 7, 14 days after hemorrhage, the behavioral observation time phase was in 1, 2, 3, 7, 14, 28 days after hemorrhage, each group of each time phase had 6 rats.

human brain disease = assay: research in treating human brain diseases (no details); assay type: in vivo
[8] = test system: cultured cerebral neurons; assay: NMDA induces neuron injury in primary cultured neurons; assay type: cell-based, rat; conditions: drug 50 mmol/L; NMDA 50 mmol/L, 12 h
[9] = test system: cerebral edema of mice caused by closed cerebral trauma; assay: closed cerebral trauma model of mice, brain water content; assay type: in vivo, Kunming mice; conditions: 2 mg/kg iv, brain taken after 24 h
Experimental: There were 10 mice in each group.
The closed cerebral trauma model of mice being established after fasting for 16 hours, administering intravenously to each group, striping and taking the brain of mouse after 24 hours, weighing the wet weight, and drying at 70° C. for 24 hours, then weighing the dry weight, and calculating brainwater content; the brain water content which is higher than normal values indicates the cerebral edema.
The grouping method, administer method and model preparation were referred to example 2.

[10] = 0.5 mg/kg iv 30 min before ICH, 4 h
[11] = 0.5 mg/kg iv 30 min before ICH, 8 h
[12] = 0.5 mg/kg iv 30 min before ICH, 8 h (example 12)
[13] = 0.5 mg/kg iv 30 min before ICH, 12 h
[14] = 0.5 mg/kg iv 30 min before ICH, 12 h (example 12)
[15] = 0.5 mg/kg iv 30 min before ICH, 24 h
[16] = 0.5 mg/kg iv 30 min before ICH, 24 h (example 12)
[17] = 24 h, Nim 0.25 mg/kg iv once per 8 h
[18] = 2 mg/kg iv 30 min before ICH, 4 h (example 12)
[19] = 2 mg/kg iv 30 min before ICH, 8 h (example 12)
[20] = 2 mg/kg iv 30 min before ICH, 12 h (example 12)
[21] = 2 mg/kg iv 30 min before ICH, 24 h (example 12)
[22] = 4 mg/kg iv 30 min before ICH, 8 h
[23] = 4 mg/kg iv 30 min before ICH, 12 h
[24] = 4 mg/kg iv 30 min before ICH, 24 h

COCCOC(=O)C1=C(C)NC(C)=C(C(=O)OC(C)C)C1c1cccc([N+](=O)[O-])c1 (stereo not shown) [nimodipine, reference compound]
NO ([1]; 0.5 mg/kg, ICH rat brain tissue): 2.40 ± 0.05^Δ μmol/g pro
brain water content (%) [2, 10]: 79.31 ± 0.76 %
brain water content ([2]; 0.5 mg/kg iv 30 min before ICH, 4 h (example 12), in %): 62.20 ± 0.59
brain water content (%) [2, 11]: 79.95 ± 0.36^Δ** %
brain water content [2, 12]: 62.70 ±0.25^Δ**
brain water content (%) [2, 13]: 81.35 ± 0.71^ΔΔ** %
brain water content [2, 14]: 63.8 ± 0.56^ΔΔ**
brain water content (%) [2, 15]: 82.89 ± 0.68^ΔΔ** %
brain water content [2, 16]: 65.02 ± 0.54^ΔΔ**
BWC(%) ([3]; 30 min, Nim 0.25 mg/kg iv): 77.26 ± 0.34 %
EB ([3]; 30 min, Nim 0.25 mg/kg iv): 2.0 ± 0.18 μg/g ww
BWC(%) ([3]; 4 h, Nim 0.25 mg/kg iv): 77.15 ± 0.66 %
EB ([3]; 4 h, Nim 0.25 mg/kg iv): 2.65 ± 0.44 μg/g ww
BWC(%) [3, 17]: 76.98 ± 0.50 %
EB [3, 17]: 2.00 ± 0.6 μg/g ww
neurological score [4, 10]: 4.5 ± 0.87
neurological score ([4]; 0.5 mg/kg iv 30 min before ICH, 4 h (example 12)): 3.65 ± 0.8
neurological score [4, 11]: 4.07 ± 1.14
neurological score [4, 12]: 3.25 ± 0.91
neurological score [4, 13]: 2.57 ± 1.14
neurological score [4, 14]: 2.05 ± 0.91
neurological score [4, 15]: 1.94 ± 0.74
neurological score [4, 16]: 1.55 ± 0.59**^Δ
NE ([5]; 0.5 mg/kg, ICH rat brain tissue homogenate): 1.88 ± 0.035^a ng/ml

CN(CCC(=O)/C=C/c1ccc(O)cc1)CCc1ccc2c(c1)OCO2.O=C(O)/C=C\C(=O)O [piperphentonamine maleate]
NO ([1]; 2 mg/kg, ICH rat brain tissue (example 12)): 2.16 ± 0.05^Δ μmol/g pro
NO ([1]; 4 mg/kg, ICH rat brain tissue): 1.48 ± 0.03^Δ μmol/g pro
histopathological observation ([6]; large dose (4 mg/kg) pretreatment): obviously reduce tissue edema and inflammatory cell infiltration after cerebral hemorrhage
histopathological observation ([6]; small dose maleate (2 mg/kg) or nimodipine (0.5 mg/kg) in advance): could ease the pathological changes above-mentioned in different levels
brain water content [2, 18]: 62.66 ± 0.66^Δ
brain water content [2, 19]: 63.88 ± 0.55^ΔΔ
brain water content [2, 20]: 64.86 ± 0.59^ΔΔ
brain water content [2, 21]: 66.33 ± 0.5^ΔΔ
brain water content ([2]; 4 mg/kg iv 30 min before ICH, 4 h, in %): 62.19 ± 0.54
brain water content [2, 22]: 62.53 ± 0.42^Δ**
brain water content [2, 23]: 63.38 ± 0.15^ΔΔ**
brain water content [2, 24]: 64.62 ± 0.58^ΔΔ**
cerebral edema after cerebral hemorrhage [7]: could obviously relieve cerebral edema after cerebral hemorrhage
neural function defect after cerebral hemorrhage (forelimb placement) [7]: improve the neural function defect after cerebral hemorrhage
neurological score [4, 18]: 3.61 ± 0.7
neurological score [4, 19]: 3.43 ± 0.82
neurological score [4, 20]: 2.92 ± 0.95
neurological score [4, 21]: 2.57 ± 1.28
neurological score ([4]; 4 mg/kg iv 30 min before ICH, 4 h): 3.25 ± 0.59
neurological score [4, 22]: 3.08 ± 0.95
neurological score [4, 23]: 1.88 ± 0.64*^Δ
neurological score [4, 24]: 1.37 ± 0.46**^ΔΔ
NE ([5]; high dose group (h), 4 mg/kg, ICH rat brain tissue): 2.37 ± 0.07^ΔΔ ng/ml
NE ([5]; low dose group (l), 2 mg/kg, ICH rat brain tissue): 2.78 ± 0.05^ΔΔ ng/ml

piperphentonamine
pathological morphology of cerebral hemorrhage ([6]; small doses (0.5 mg/kg) in advance): could ease the pathological changes above-mentioned in different levels
treating human brain and other diseases (human brain disease): obvious effect and clinical significance
mortality [8]: 30%
water content of cerebra (%) [9]: 78.31 ± 5.72 %
